# Results taken from patent US8748464B2, “Use of SIRT1 activators or inhibitors to modulate an immune response” (The J. David Gladstone Institutes, priority 2008, dated 2014).
# Legend:
# Jurkat T cells [1] = experiment: IL-2 protein ELISA in supernatant of α-CD3-stimulated Jurkat T cells infected with EF-1α-GFP or EF-1α-Tat-GFP viruses; assay type: cell-based, human; conditions: 16 hrs
# Experimental: Lentiviral vectors, which contained the heterologous elongation factor 1α (EF-1α) promoter driving Tat and GFP expression, were generated. High titer viral stocks were produced and used to infect Jurkat T cells. […] Infected cultures were stimulated with antibodies specific for the CD3 receptor and treated with increased concentrations of resveratrol (0.4 μM, 2 μM, and 10 μM), a known SIRT1 activator for 16 hrs. IL-2 protein was measured in the culture supernatant by ELISA assay. Following stimulation with α-CD3 antibody, IL-2 protein was superinduced ˜4-fold by wild type Tat (FIG. 8A). In cells expressing Tat, ˜2300 pg/ml of IL-2 protein was detected in response to α-CD3 treatment, whereas in control cells, only ˜600 pg/ml of IL-2 protein was induced.
# The effects of small molecule of SIRT1 ([…]) on T cell hyperactivation in Tat-expressing cells were examined. Jurkat T cells were infected with EF-1α-GFP or EF-1α-Tat-GFP viruses (FIG. 8B). Infected cultures were stimulated with α-CD3 antibody and treated with SRT2183 (0.2, 1, and 5 μM) for 16 hrs.
# FIGS. 8A and 8B. Resveratrol and small molecule activator of SIRT1 (SRT2183) suppresses T cell hyperactivation by Tat. (A) IL-2 protein levels measured by ELISA in the supernatant of infected cultures. 24 hrs after infection with EF1α-GFP and EF1α-Tat-GFP viruses, Jurkat T cells were stimulated with α-CD3 antibody in the presence of increased concentrations of resveratrol (0.4, 2, and 10 μM) for 16 hrs. (B) 24 hrs after infection with EF1α-GFP and EF1α-Tat-GFP viruses, Jurkat T cells were stimulated with α-CD3 antibody in the presence of increased concentrations of SRT2183 (0.2, 1, and 5 μM) for 16 hrs. IL-2 protein levels were measured by ELISA in the supernatant of infected cultures.
# SIRT1 [2] = biological target: T1, SIRT1 (Homo sapiens, UniProt Q96EB6); conditions: Howitz et al. 2003; Baur et al. 2006; cited from earlier work
# T1 sequence (Q96EB6 1-747): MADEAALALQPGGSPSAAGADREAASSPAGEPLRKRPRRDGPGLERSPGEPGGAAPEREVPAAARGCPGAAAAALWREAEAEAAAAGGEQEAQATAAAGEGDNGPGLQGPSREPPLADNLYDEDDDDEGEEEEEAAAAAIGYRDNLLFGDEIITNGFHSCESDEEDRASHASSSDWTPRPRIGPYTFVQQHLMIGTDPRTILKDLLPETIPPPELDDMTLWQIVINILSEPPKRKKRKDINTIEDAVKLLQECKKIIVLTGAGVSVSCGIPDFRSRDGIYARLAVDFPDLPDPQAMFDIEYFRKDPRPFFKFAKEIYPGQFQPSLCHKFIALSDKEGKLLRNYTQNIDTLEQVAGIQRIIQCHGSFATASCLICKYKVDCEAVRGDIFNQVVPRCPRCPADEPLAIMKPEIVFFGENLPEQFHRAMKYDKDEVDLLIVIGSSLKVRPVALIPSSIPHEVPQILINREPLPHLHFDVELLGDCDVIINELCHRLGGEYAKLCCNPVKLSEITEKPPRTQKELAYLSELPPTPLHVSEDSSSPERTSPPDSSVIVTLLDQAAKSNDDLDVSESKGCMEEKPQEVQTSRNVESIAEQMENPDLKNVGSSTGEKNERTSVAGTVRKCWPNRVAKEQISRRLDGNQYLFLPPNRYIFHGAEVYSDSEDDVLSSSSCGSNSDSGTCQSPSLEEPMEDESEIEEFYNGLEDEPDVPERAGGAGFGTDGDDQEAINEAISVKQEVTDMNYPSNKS
# Jurkat T cells [3] = experiment: Real-time RT-PCR of IL-2 mRNA in α-CD3/28-activated Jurkat T cells; assay type: cell-based, human
# Experimental: Viral supernatant containing 1500 ng of p24 was used to infect 18×10^6 JurkatT cells. Infections were carried out in 6-well plates at 2400 rpm in a Beckman-Coulter centrifuge for 2 h at 32° C. in the presence of polybrene (1 μg/ml, Sigma).
# Total RNA was extracted using RNA STAT-60 reagent (Tel-Test) according to the manufacturer's instruction. The first strand cDNA was generated using 2 μg of total RNA and SuperScript reverse transcriptase (Invitrogen). […] Relative gene expression ratios between stimulated and nonstimulated conditions were calculated by the equation, ratio=2^−ΔΔCt, comparative Ct method (Applied Biosystems).
# Infected cultures were activated for 2 h and 8 h with α-CD3/28 antibodies. (B) Real-time RT-PCR analysis of IL-2 mRNA levels in infected cultures 2 h after activation with α-CD3/28.
# [4] = system: FLAG-FoxP3 in 293 T cells; experiment: Immunoprecipitation/western blot of acetylated FLAG-FoxP3 or HA-AML1/Runx1 in 293 T cells cotransfected with p300; assay type: cell-based
# From the text: FIGS. 10A-D. SIRT1 interacts with FoxP3 and inhibition of SIRT1 deacetylase activity increases acetylation of FoxP3. (A) Communoprecipitation/western blot analysis of FLAG-tagged FoxP3 and HA-tagged SIRT1 after transfection of corresponding expression vectors or empty vector controls into 293T cells. (B) Communoprecipitation assay of SIRT1 and FoxP3 deletion mutants. A schematic summary of the binding of FoxP3 mutants to SIRT1 is shown. The forkhead box (FH) indicates the DNA binding domain ZnF, zinc finger domain; LZ, leucine zipper. […] An expression vector for the p300 acetyltransferase was cotransfected with FoxP3. (D) The same experiment as in (C) using HA-AML1/Runx1. Immunoprecipitations were performed with either anti-FLAG antibody coupled to agarose (α-FLAG agarose) (C) or anti-hemagglutinin antibody coupled to agarose (α-HA agarose) (D) and western blotting with rabbit polyclonal antibody to acetyl-lysine (α-acetyl lysine) (α-AcK), α-FLAG or α-HA antibodies.
# [5] = system: FLAG-FoxP3 in 293 T cells; experiment: Western blot of FLAG-FoxP3 (wild type or mutant) or FLAG-AML1/Runx1 expression in 293 T cells; assay type: cell-based; conditions: 293 T cells
# Experimental: To determine whether the three newly identified acetylated lysine residues regulate FoxP3 stability, mutants were generated in which each of three lysine residues was substituted to arginines (KR), a conservative mutation that preserves the positive charge of the residue.
# To investigate the effect of SIRT1 inhibition and the three newly identified acetylation sites on FoxP3 protein stability, wild type and 3KR mutant FoxP3 protein expression was measured after treatment with cycloheximide (CHX), a general inhibitor of protein translation.
# (B) Scheme of acetylated lysine residues identified by mass spectrometry using immunoprecipitated FLAG-FoxP3 protein. The murine protein is shown.
# SIRT1 [6] = biological target: T1, SIRT1; experiment: In vitro deacetylation of acetylated recombinant p65 by recombinant SIRT1, western blot α-AcK310 p65; assay type: biochemical; design: purchased Biomol; conditions: synthetic Tat 0.1 μg or nicotinamide 10 mM, preincubated 15 min; NAD 1 mM, 3 h, 37° C.
# Experimental: Recombinant p65 protein prepared from baculovirus-infected Sf9 insect cells (BD Biosciences) was acetylated by immunoprecipitated p300 overexpressed in 293 cells as previously described (Chen et al., 2005). Acetylated p65 protein was incubated with recombinant SIRT1 (1 μg/5U; Biomol) in SIRT1 deacetylase buffer (50 mM Tris-HCl pH 9, 4 mM MgCl2, 0.2 mM DTT) in the presence of NAD (1 mM; Sigma) for 3 h at 37° C. […] Reactions were stopped by the addition of SDS loading buffer, boiled, and after brief centrifugation, analyzed by western blotting with rabbit a-AcK310 p65 (Chen et al., 2005) or mouse α-p65 antibodies (sc-8008, Santa Cruz).
# Next, we examined the effect of Tat on deacetylation of p65. In vitro acetylated recombinant p65 protein was incubated with recombinant SIRT1 and synthetic Tat proteins. The extent of deacetylation was determined by western blotting with antibody specific for acetylated K310 in p65 (α-AcK310 p65). […]
# FIGS. 5A-D. Tat inhibits the SIRT1 deacetylase activity (A) In vitro deacetylation assay of recombinant SIRT1 in the presence of synthetic Tat (aa 1-72). The rate of 1 μM SIRT1 was calculated for 200 μM fluorogenic deacetylase substrate (aa 379-382 of p53) in the presence of twelve concentrations of synthetic Tat. […] Total cell lysates were analyzed by western blotting with α-AcK310 p65 or α-T7 antibodies. […]
smiles,measurement,setting,value
Oc1ccc(/C=C/c2cc(O)cc(O)c2)cc1 [resveratrol],ability of Tat to superinduce IL-2 production,Jurkat T cells [1]; 10 μM,completely impaired
same,superinduction of IL-2 protein in Tat-expressing cells,"Jurkat T cells [1]; 0.4, 2 and 10 μM",abolished by resveratrol in a concentration dependent manner
same,activation of SIRT1 enzymatic activity,SIRT1 [2],(weak) reversible activator
NC(=O)c1cccnc1 [nicotinamide],effect of combination with Tat on IL-2 expression,Jurkat T cells [3],no additive effect
same,IL-2 mRNA levels,"Jurkat T cells [3]; noninfected Jurkat T cells, nicotinamide 10 mM 1 h before α-CD3/28",superinduced IL-2 mRNA to similar levels as Tat
same,acetylation levels of FoxP3,[4],increased acetylation levels of FoxP3
same,acetylation of AML1/Runx1,[4],increased to the same extent
same,FoxP3 mRNA levels,[5],No effect
same,FoxP3 protein expression,"[5]; nicotinamide 5 mM, Ex-527 50 μM or TSA 400 nM, 16 hours",upregulation of protein expression
same,deacetylation of p65 (K310) by SIRT1,SIRT1 [6],same inhibition of p65 deacetylation
